Patent publication US8545834B2, “G-substrate for the treatment and prevention of parkinson's disease” (The McLean Hospital Corporation, priority 2007, dated 2013)

Experiments:
TH-positive neurons = experiment: Transduction of midbrain TH-positive neurons after intra-nigral lentivirus injection; format: in vivo, rat; conditions: naïve rats; compared to GFP-transduced rats
Procedure: A lentivirus encoding G-substrate (Lenti G-substrate) was stereotactically injected immediately dorsal to the substantia nigra in rats. The transduction efficiency of the lentivirus was then determined. Lenti G-substrate was transduced into TH-positive neurons to varying degrees depending upon the neuroanatomical level.
Rats received two 2.75 μl stereotaxic injections of either lenti-empty vector+lenti-eGFP (n=19), lenti-G substrate+lenti-eGFP (n=19), or lenti-YFP (n=14) and delivered at a rate of 0.2 μl/min using microinfusion pumps (Stoelting Co, Wood Dale, Ill.) with 10 min wait times after each injection. […]
Estimates of TH-positive neuronal number within the SN were performed using Stereo Investigator™ software (MBF Bioscience, Williston, Vt.) and stereologic principles (West et al., J. Comp. Neurol. 296: 1-22, 1990). […] For each tissue section analyzed, section thickness was assessed empirically and guard zones of 2 μm thickness were used at the top and bottom of each section. The SN was outlined under low magnification (2.5×) and approximately 50% of the outlined region was analyzed using a systematic random sampling design generated with the following stereologic parameters: grid size, 200×200 μm; counting frame size, 153×140 μm; and dissector height, 16 μm. […]

BE(2)-M17 cells = experiment: In vitro protection assays (MTS cell viability, LDH release) against neurotoxins; format: cell-based, human; conditions: lentiviral overexpression in BE(2)-M17 cells, toxin 20 hrs
Procedure: Viability of the M17 cells was assessed following exposure to a variety of neurotoxins, each representing different aspects of PD pathology. 6-hydroxydopamine (6-OHDA) causes oxidative stress. MG-132 induces proteasome inhibition. And, MPP+ causes mitochondrial dysfunction by inhibiting Complex I. Cytotoxicity of M17 cells was determined using both cell viability assays and LDH release. G-substrate overexpression in M17 cells was confirmed by Western blot analysis (FIG. 3A) and by immunocytochemistry (FIG. 3B).
BE(2)-M17 cells were transduced with lentivirus expressing control or G-substrate with a multiplicity of infection 15. Cells were grown in Optimem™ (Invitrogen, Carlsbad, Calif.) supplemented with 10% heat-inactivated fetal calf serum (Hyclone, Logan, Utah), nonessential amino acid and sodium pyruvate. Cells were maintained at 37° C., in 5% CO2 humid atmosphere. For the bioassay, cells were plated in 96 well plates at 5000 per well. The next day, cells were treated with various concentrations of 6-OHDA (Sigma), MG-132 (Calbiochem) and MPP+ (Sigma) for 20 hrs. The supernatant was used to determine cytotoxicity using LDH release assay kit (Roche, Indianapolis, Ind.) and the cells remaining on the plate was used to determine cell viability using MTS based solution, CellTiter 96 AQueous One™ solution cell proliferation assay (Promega, Madison, Wis.).
Three different siRNAs for human G-substrate as described herein, a negative control siRNA, and a validated Akt siRNA (Ambion; Austin, Tex.) were used. Cells were plated in 96 well plates at 5000 per well with siRNAs and siPORT NeoFX transfection agent (Ambion, Austin, Tex.). After 48 hrs of incubation with siRNAs, each of the toxicants (6-OHDA, MG-132 or MPP+) were applied to the cells. Cell viability and cytotoxicity was measured after 20 hrs of toxin exposure.

PP2A = PP2A activity assay (immunoprecipitated PP2A, phosphopeptide, Malachite Green); format: cell-based, human; conditions: BE(2)-M17 cells exposed to 50 μM 6-OHDA for 2 hours; versus control cells
Procedure: PP2A activity was measured in control BE(2)-M17 cells at various incubation times (t=0, 1, 2, 5 and 8 hr) after exposure to 50 μM 6-OHDA. […] Control, wild-type, and T123A G-substrate-expressing cells were then exposed to 50 μM 6-OHDA for 2 hours before measurement of PP2A activity.
PP2A activity was measured using a non-radioactive kit according to the manufacturer's instruction (Upstate Biotechnologies, Lake Placid, N.Y.). After 50 μM 6-OHDA exposure with various times, cells were harvested in 20 mM imidazole-HCl, 2 mM EDTA, 2 mM EGTA, pH7 with a protease inhibitor cocktail (Sigma). Protein concentrations of the lysates were measured using BCA assay (Pierce) and 500 μg of protein was immunoprecipitated using an anti-PP2A catalytic subunit antibody and protein A-Sepharose beads. Immunoprecipitated PP2A was then incubated with phosphopeptide (K-R-pT-I-R-R (SEQ ID NO: 8)) for 10 min at 37° C. Dephosphorylation of the phosphopeptide was assayed spectrophotometrically at 650 nm using Malachite Green.

## G-substrate: human wild type G-substrate (SEQ ID NO.: 1) overexpressed from a lentiviral vector
TH-positive neurons
  total number of TH-positive neurons in midbrain: did not alter
BE(2)-M17 cells
  protection against MPP+-induced toxicity (cell viability, LDH release): neither wild-type nor T123A mutant G-substrate overexpression was protective
BE(2)-M17 cells; compared to control
  neuroprotection against 6-OHDA toxicity (cell viability, LDH release): neuroprotective
  neuroprotection against MG-132 toxicity (cell viability, LDH release): neuroprotective
PP2A
  PP2A activity in G-substrate-expressing cells: significant reduction
